biological target: T1, Recombinant human liver GK1 (GST-GK) (Homo sapiens, UniProt P35557); assay: Glucokinase in vitro assay (G6PDH-coupled, NADH at OD340); type: biochemical; conditions: 25° C., 5 mM D-glucose, 10% DMSO, GST-GK
T1 construct: made in house; host or cells: E. coli
T1 sequence (P35557 1-466 isoform P35557-2): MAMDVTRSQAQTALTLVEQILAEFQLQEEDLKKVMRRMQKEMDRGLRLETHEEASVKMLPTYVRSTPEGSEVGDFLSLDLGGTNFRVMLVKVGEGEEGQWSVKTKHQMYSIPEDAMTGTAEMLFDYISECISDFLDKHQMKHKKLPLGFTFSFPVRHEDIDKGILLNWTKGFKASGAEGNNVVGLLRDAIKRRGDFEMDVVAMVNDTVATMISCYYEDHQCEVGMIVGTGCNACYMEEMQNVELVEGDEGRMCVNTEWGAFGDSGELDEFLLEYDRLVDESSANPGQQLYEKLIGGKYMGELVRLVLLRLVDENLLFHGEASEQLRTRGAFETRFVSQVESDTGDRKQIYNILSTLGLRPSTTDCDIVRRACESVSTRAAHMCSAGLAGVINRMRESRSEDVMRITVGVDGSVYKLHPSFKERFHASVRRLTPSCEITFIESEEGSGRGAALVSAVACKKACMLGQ
Experimental: Glucokinase In Vitro Assay Protocol: Glucokinase (GK) was assayed by coupling the production of glucose-6-phosphate to the generation of NADH with glucose-6-phosphate dehydrogenase (G6PDH, 0.75-1 kunits/mg; Boehringer Mannheim, Indianapolis, Ind.) from Leuconostoc mesenteroides as the coupling enzyme (Scheme 2).
Recombinant human liver GK1 was expressed in E. coli as a glutathione S-transferase fusion protein (GST-GK) [Liang et al, 1995] and was purified by chromatography over a glutathione-Sepharose 4B affinity column using the procedure provided by the manufacturer (Amersham Pharmacia Biotech, Piscataway, N.J.).
The assay was conducted at 25° C. in a flat bottom 96-well tissue culture plate from Costar (Cambridge, Mass.) with a final incubation volume of 120 μL. The incubation reaction contained the following: 25 mM Hepes buffer (pH 7.1), 25 mM KCl, 5 mM D-glucose, 1 mM ATP, 1.8 mM NAD, 2 mM MgCl2, 1 μM sorbitol-6-phosphate, 1 mM dithiothreitol, test drug or 10% DMSO, 1.8 unit/ml G6PDH, and GK (see below). All organic reagents were >98% pure and were from Boehringer Mannheim with the exceptions of D-glucose and Hepes which were from Sigma Chemical Co, St Louis, Mo. Test compounds were dissolved in DMSO and were added to the incubation reaction minus GST-GK in a volume of 12 μL to yield a final DMSO concentration of 10%. This mix was pre-incubated in the temperature controlled chamber of a SPECTRAmax 250 microplate spectrophotometer (Molecular Devices Corporation, Sunnyvale, Calif.) for 10 minutes to allow temperature equilibrium and then the reaction was started by the addition of 20 μL GST-GK.
After addition of enzyme, the increase in optical density (OD) at 340 nm was monitored over a 10 minute incubation period as a measure of GK activity. Sufficient GST-GK was added to produce an increase in OD340 of 0.08 to 0.1 units over the 10 minute incubation period in wells containing 10% DMSO but no test compound. Preliminary experiments established that the GK reaction was linear over this period of time even in the presence of activators that produced a 5-fold increase in GK activity. The GK activity in control wells was compared with the activity in wells containing test GK activators, and the concentration of activator that produced a 50% increase in the activity of GK, i.e., the SC1.5, was calculated.

SMILES | SC1.5 (concentration of activator that produced a 50% increase in the activity of GK)
CS(=O)(=O)c1ccc([C@@H](CC2CCOCC2)C(=O)Nc2ccn(CCO)n2)cc1Cl (single isomer, unassigned) [Example 76] | 5.3 µM
CS(=O)(=O)c1ccc([C@@H](CC2CCCC2)C(=O)Nc2cc[nH]n2)cc1Cl [Example 2, 2(R)-(3-Chloro-4-methanesulfonyl-phenyl)-3-cyclopentyl-N-(1H-pyrazol-3-yl)-propionamide] | 0.28 µM
CC(C)(C)OC(=O)CCn1ccc(NC(=O)[C@H](CC2CCCC2)c2ccc(S(C)(=O)=O)c(Cl)c2)n1 [Example 8, 3-{3-[2(R)-(3-Chloro-4-methanesulfonyl-phenyl)-3-cyclopentyl-propionylamino]-pyrazol-1-yl}-propionic acid tert-butyl ester] | 0.2 µM
CCCNC(=O)CCn1ccc(NC(=O)[C@H](CC2CCCC2)c2ccc(S(C)(=O)=O)c(Cl)c2)n1 [Example 11, 2(R)-(3-Chloro-4-methanesulfonyl-phenyl)-3-cyclopentyl-N-[1-(2-propylcarbamoyl-ethyl)-1H-pyrazol-3-yl]-propionamide] | 0.45 µM
CS(=O)(=O)c1ccc([C@@H](CC2CCCC2)C(=O)Nc2ccn(Cc3ccccc3)n2)cc1Cl [Example 24, N-(1-Benzyl-1H-pyrazol-3-yl)-2(R)-(3-chloro-4-methanesulfonyl-phenyl)-3-cyclopentyl-propionamide] | 0.083 µM
COC(=O)c1ccc(Cn2ccc(NC(=O)[C@H](CC3CCCC3)c3ccc(S(C)(=O)=O)c(Cl)c3)n2)cc1 [Example 44, 4-{3-[2-(R)-(3-Chloro-4-methanesulfonyl-phenyl)-3-cyclopentyl-propionylamino]-pyrazol-1-ylmethyl}-benzoic acid methyl ester] | 0.061 µM
COCCCNC(=O)c1ccc(Cn2ccc(NC(=O)[C@H](CC3CCCC3)c3ccc(S(C)(=O)=O)c(Cl)c3)n2)cc1 [Example 47, 4-{3-[2-(R)-(3-Chloro-4-methanesulfonyl-phenyl)-3-cyclopentyl-propionylamino]-pyrazol-1-ylmethyl}-N-(3-methoxy-propyl)-benzamide] | 0.03 µM
CC(C)n1ccc(NC(=O)[C@H](CC2CCCC2)c2ccc(S(C)(=O)=O)c(Cl)c2)n1 [Example 56, 2-(R)(3-Chloro-4-methanesulfonyl-phenyl)-3-cyclopentyl-N-(1-isopropyl-1H-pyrazol-3-yl)-propionamide] | 0.13 µM
O=C(Nc1ccn(CCO)n1)[C@H](CC1CCCC1)c1cccc(C(F)(F)F)c1 [Example 79, 3-Cyclopentyl-N-[1-(2-hydroxy-ethyl)-1H-pyrazol-3-yl]-2(R)-(3-trifluoromethyl-phenyl)-propionamide] | 1.433 µM

same assay, conditions: qualitative statement

SMILES | glucokinase activation (in words)
CS(=O)(=O)c1ccc([C@@H](CC2CCOCC2)C(=O)Nc2ccn(CCO)n2)cc1Cl (single isomer, unassigned) [Example 76] | active
CC(C)(O)Cn1ccc(NC(=O)[C@H](CC2CCOCC2)c2ccc(Cl)c(Cl)c2)n1 (single isomer, unassigned) [Example 88] | active
CC(C)(O)Cn1ccc(NC(=O)[C@H](CC2COC2)c2ccc(S(C)(=O)=O)c(Cl)c2)n1 (single isomer, unassigned) [Example 92] | active
CC(C)(O)Cn1ccc(NC(=O)[C@H](CC2CCOCC2)c2ccc(S(C)(=O)=O)c(Cl)c2)n1 [Example 90, 2(R)-(3-Chloro-4-methanesulfonyl-phenyl)-N-[1-(2-hydroxy-2-methyl-propyl)-1H-pyrazol-3-yl]-3-(tetrahydro-pyran-4-yl)-propionamide] | active

system: Diet-Induced Obese (DIO) C57BL/6J mice; assay: Glucokinase activator in vivo screen, blood glucose in DIO mice; conditions: Mus musculus; 2 hours post 25 mg/kg oral dose in DIO mice, vs control; read-out: % gluc @ 2 H (% glucose lowering vs control)
Experimental: Glucokinase Activator in vivo Screen Protocol in Lean and Diet Induced Obese Mice: Lean or Diet-Induced Obese (DIO) C57BL/6J mice were orally dosed via gavage with Glucokinase (GK) activator (50 mg/kg body weight for lean mice, 25 mg/kg body weight for DIO mice) following a two hour fasting period. Blood glucose determinations were made four times during the six hour post-dose study period.
C57Bl/6J mice were obtained from Jackson Laboratory (Bar Harbor, Me.) and were maintained in a light-dark cycle with lights on from 0600-1800 hr. For studies in lean mice, the mice were received at age six weeks and given ad libitum access to control diet (LabDiet 5001 chow, PMI Nutrition, Brentwood, Mo.), and were at least age 11 weeks at the time of study. For studies in the DIO model, the mice were received at age five weeks and given ad libitum access to Bio-Serv F3282 High Fat Diet (Frenchtown, N.J.), and were at least age 16 weeks at the time of study. The experiments were conducted during the light phase of the light-dark cycle. Mice (n=6) are weighed and fasted for a two hour period prior to oral treatment. GK activators are formulated in Gelucire vehicle (Ethanol:Gelucire44/14:PEG400q.s. 4:66:30 v/w/v. For studies in lean mice, the mice were dosed orally with 5.0 μL per gram of body weight with 5 ml/kg×10.0 mg/ml formulation to equal a 50 mg/kg dose. For studies in DIO mice, the mice were dosed orally with 5.0 μL per gram of body weight with […] formulation to equal a 25 mg/kg dose. Immediately prior to dosing, a pre-dose (time zero) blood glucose reading was acquired by snipping off a small portion of the animal's tail (˜1 mm) and collecting 15 μL blood into a heparinized capillary tube for analysis. Following GK activator administration, additional blood glucose readings were taken at 2, 4 and 6 hours post dose from the same tail wound. Results were interpreted by comparing the mean blood glucose values of six vehicle treated mice with six GK activator treated mice over the six hour study duration.

SMILES | change in vivo at 25 mg/kg
CS(=O)(=O)c1ccc([C@@H](CC2CCCC2)C(=O)Nc2ccn(CC(=O)N3CCOCC3)n2)cc1Cl [Example 7, 2(R)-(3-Chloro-4-methanesulfonyl-phenyl)-3-cyclopentyl-N-[1-(2-morpholin-4-yl-2-oxo-ethyl)-1H-pyrazol-3-yl]-propionamide] | -15.3%
CCS(=O)(=O)n1ccc(NC(=O)[C@H](CC2CCCC2)c2ccc(S(C)(=O)=O)c(Cl)c2)n1 [Example 33, 2(R)-(3-Chloro-4-methanesulfonyl-phenyl)-3-cyclopentyl-N-(1-ethanesulfonyl-1H-pyrazol-3-yl)-propionamide] | -9.8%
CS(=O)(=O)c1ccc([C@@H](CC2CCCC2)C(=O)Nc2ccn(C[C@@H](O)CO)n2)cc1Cl [Example 35, 2-(R)-(3-Chloro-4-methanesulfonyl-phenyl)-3-cyclopentyl-N-[1-((R)-2,3-dihydroxy-propyl)-1H-pyrazol-3-yl]-propionamide] | -33.2%
CS(=O)(=O)c1ccc([C@@H](CC2CCCC2)C(=O)Nc2ccn(CC3(O)CC3)n2)cc1Cl [Example 73, 2-(R)-(3-Chloro-4-methanesulfonyl-phenyl)-3-cyclopentyl-N-[1-(1-hydroxy-cyclopropylmethyl)-1H-pyrazol-3-yl]-propionamide] | -48.5%
Cc1cc([C@@H](CC2CCCC2)C(=O)Nc2ccn(CCO)n2)ccc1S(C)(=O)=O [Example 78, 3-Cyclopentyl-N-[1-(2-hydroxy-ethyl)-1H-pyrazol-3-yl]-2(R)-(4-methanesulfonyl-3-methyl-phenyl)-propionamide] | -26.7%
COCCn1ccc(NC(=O)[C@H](CC2CCCC2)c2ccc(S(C)(=O)=O)c(C)c2)n1 [Example 81, 3-Cyclopentyl-2(R)-(4-methanesulfonyl-3-methyl-phenyl)-N-[1-(2-methoxy-ethyl)-1H-pyrazol-3-yl]-propionamide] | -31.4%
Cc1cc([C@@H](CC2CCCC2)C(=O)Nc2ccn(CCCO)n2)ccc1S(C)(=O)=O [Example 82, 3-Cyclopentyl-N-[1-(3-hydroxy-propyl)-1H-pyrazol-3-yl]-2(R)-(4-methanesulfonyl-3-methyl-phenyl)-propionamide] | -38.3%
COCCn1ccc(NC(=O)[C@H](CC2CCCC2)c2cccc(C(F)(F)F)c2)n1 [Example 84, 3-Cyclopentyl-N-[1-(2-methoxy-ethyl)-1H-pyrazol-3-yl]-2(R)-(3-trifluoromethyl-phenyl)-propionamide] | -24.5%

Reference: patent US7935699B2, “Pyrazole glucokinase activators” (Hoffmann-La Roche Inc., priority 2006, dated 2011)
